Source: patent US20240270821A1, “GIP/GLP1/GCG TRI-RECEPTOR AGONISTS AND USES THEREOF” (priority 2023, published 2024)
Starred links: 1 amine or outer side, 2 acyl side, 3 side chain; linkers in the order of their positions; H or OH if unused. Non-standard residues stand in square brackets, D forms with d. Residues, ends and D or L forms follow the SMILES beside them. Groups on a side chain read outwards from the residue. *: point of attachment. Phe(4-NO2) = N[C@@H](Cc1ccc([N+](=O)[O-])cc1)C(=O)O; C18 diacid = O=C(O)CCCCCCCCCCCCCCCCC(=O)*; αMePhe(2-F) = C[C@](N)(Cc1ccccc1F)C(=O)O; γGlu = O=C(O)[C@H](CCC(=O)[*:2])N[*:1]; 4Pal = N[C@@H](Cc1ccncc1)C(=O)O; αMeL = CC(C)C[C@](C)(N)C(=O)O; αMeS = C[C@](N)(CO)C(=O)O; Orn = NCCC[C@H](N)C(=O)O; AEEA = NCCOCCOCC(=O)O; Aib = CC(C)(N)C(=O)O

Key:
Assay type in all cases: cell-based
hGLP-1R [1] = target: T1, hGLP-1R (Homo sapiens, UniProt P43220); assay: Functional cAMP activity in the presence of 1% HSA; conditions: read-out: cAMP Rel EC50, hGLP-1R
human GcgR = human GcgR (Homo sapiens, UniProt P47871); assay: Functional cAMP activity in the presence of 1% HSA; conditions: read-out: cAMP Rel EC50, hGcgR
hGcgR = hGcgR (Homo sapiens, UniProt P47871); assay: Functional cAMP activation in the presence of 0.1% casein (no HSA); conditions: read-out: Relative cAMP EC50, hGcgR;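 note: intracellular cAMP rise after 30 min at 37 °C, read by HTRF against a cAMP standard curve, scaled from buffer only (0%) to maximal control ligand response (100%)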
hGIPR [2] = target: T2, hGIPR (Homo sapiens, UniProt P48546); assay: as above; conditions: read-out: Relative cAMP EC50, hGIPR;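 note: intracellular cAMP rise after 30 min at 37 °C read by HTRF against a standard curve, scaled between buffer alone (0%) and top control ligand concentration (100%), four-parameter fit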
T2 sequence (P48546 22-466): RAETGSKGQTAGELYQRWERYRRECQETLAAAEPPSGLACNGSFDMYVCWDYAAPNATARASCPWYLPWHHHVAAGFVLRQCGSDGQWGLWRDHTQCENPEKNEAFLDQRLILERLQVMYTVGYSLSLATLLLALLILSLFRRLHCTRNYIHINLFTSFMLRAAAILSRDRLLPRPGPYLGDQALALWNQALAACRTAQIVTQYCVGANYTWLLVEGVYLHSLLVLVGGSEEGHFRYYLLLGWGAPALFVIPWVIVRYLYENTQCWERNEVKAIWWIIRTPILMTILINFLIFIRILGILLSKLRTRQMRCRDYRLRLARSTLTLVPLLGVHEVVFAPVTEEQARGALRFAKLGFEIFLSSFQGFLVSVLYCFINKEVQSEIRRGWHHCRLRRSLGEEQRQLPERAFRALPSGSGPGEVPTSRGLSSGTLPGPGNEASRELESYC

hGIPR [3] = target: T2, hGIPR; assay: Functional cAMP activity in the presence of 1% HSA; conditions: read-out: cAMP Rel EC50, hGIPR
hGLP-1R [4] = target: T1, hGLP-1R; assay: Functional cAMP activation in the presence of 0.1% casein (no HSA); conditions: read-out: Relative cAMP EC50, hGLP-1R;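 for Relative cAMP EC50, hGIPR: intracellular cAMP rise after 30 min at 37 °C read by HTRF against a standard curve, scaled between buffer alone (0%) and top control ligand concentration (100%), four-parameter fit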;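 for Relative cAMP EC50, hGLP-1R: intracellular cAMP rise after 30 min at 37 °C read by HTRF, normalized between buffer only (0%) and maximal control ligand (100%), four-parameter variable-slope fit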

T1 sequence (P43220 24-463): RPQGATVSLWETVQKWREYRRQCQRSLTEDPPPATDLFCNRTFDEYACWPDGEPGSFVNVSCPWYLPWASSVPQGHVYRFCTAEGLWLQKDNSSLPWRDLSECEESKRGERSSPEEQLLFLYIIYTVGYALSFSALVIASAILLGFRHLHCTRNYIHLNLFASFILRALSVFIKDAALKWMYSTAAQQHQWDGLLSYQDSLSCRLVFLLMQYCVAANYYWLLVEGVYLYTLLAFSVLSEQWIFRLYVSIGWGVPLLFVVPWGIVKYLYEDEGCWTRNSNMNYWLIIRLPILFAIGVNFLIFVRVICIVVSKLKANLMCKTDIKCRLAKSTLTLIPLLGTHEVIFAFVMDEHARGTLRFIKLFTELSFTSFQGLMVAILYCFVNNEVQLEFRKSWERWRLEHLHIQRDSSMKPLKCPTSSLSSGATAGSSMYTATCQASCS
human GcgR, sequence (P47871 26-477): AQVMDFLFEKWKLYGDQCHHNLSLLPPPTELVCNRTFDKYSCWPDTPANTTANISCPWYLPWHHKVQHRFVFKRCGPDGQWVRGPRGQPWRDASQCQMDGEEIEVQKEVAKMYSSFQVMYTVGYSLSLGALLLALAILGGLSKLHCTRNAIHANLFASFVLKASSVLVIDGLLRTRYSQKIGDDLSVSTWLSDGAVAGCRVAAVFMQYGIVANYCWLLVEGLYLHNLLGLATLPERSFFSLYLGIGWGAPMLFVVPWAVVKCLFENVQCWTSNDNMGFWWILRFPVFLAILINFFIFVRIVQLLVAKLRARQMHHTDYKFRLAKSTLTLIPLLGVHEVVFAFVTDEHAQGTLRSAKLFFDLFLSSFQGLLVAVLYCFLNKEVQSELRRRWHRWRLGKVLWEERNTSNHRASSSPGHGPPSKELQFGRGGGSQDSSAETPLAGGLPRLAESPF
hGcgR, sequence (P47871 26-477): as above

Row | Compound | EC50 (hGLP-1R [1]) [nM] | EC50 (human GcgR) [nM] | EC50 (hGcgR) [nM] | EC50 (hGIPR [2]) [nM] | EC50 (hGIPR [3]) [nM] | EC50 (hGLP-1R [4]) [nM]
1 | CC[C@H](C)[C@H](NC(=O)[C@H](Cc1ccccc1)NC(=O)[C@H](C)NC(=O)C(C)(C)NC(=O)[C@H](CCC(N)=O)NC(=O)[C@H](C)NC(=O)[C@H](CCCCNC(=O)COCCOCCNC(=O)COCCOCCNC(=O)CC[C@H](NC(=O)CCCCCCCCCCCCCCCCC(=O)O)C(=O)O)NC(=O)[C@H](CCCCN)NC(=O)[C@H](CC(=O)O)NC(=O)[C@H](CC(C)C)NC(=O)[C@H](CC(C)C)NC(=O)[C@@H](NC(=O)[C@](C)(CO)NC(=O)[C@H](Cc1ccc(O)cc1)NC(=O)[C@H](CC(=O)O)NC(=O)[C@H](CO)NC(=O)[C@@H](NC(=O)[C@](C)(Cc1ccccc1F)NC(=O)[C@@H](NC(=O)CNC(=O)[C@H](CCC(N)=O)NC(=O)C(C)(C)NC(=O)[C@@H](N)Cc1ccc(O)cc1)[C@@H](C)O)[C@@H](C)O)[C@@H](C)CC)C(=O)N[C@@H](CCC(=O)O)C(=O)N[C@@H](Cc1ccc(O)cc1)C(=O)N[C@@H](CC(C)C)C(=O)N[C@@H](CCC(=O)O)C(=O)N[C@@H](CCC(=O)O)C(=O)NCC(=O)NCC(=O)N1CCC[C@H]1C(=O)N[C@@H](CO)C(=O)N[C@@H](CO)C(=O)NCC(=O)N[C@@H](CCC(=O)O)C(=O)N1CCC[C@H]1C(=O)N1CCC[C@H]1C(=O)N1CCC[C@H]1C(=O)N[C@@H](CCC(=O)O)C(N)=O [Example 469] (H-Y[Aib]QGT[αMePhe(2-F)]TSDY[αMeS]ILLDKK([AEEA-AEEA-γGlu-C18 diacid])AQ[Aib]AFIEYLEEGGPSSGEPPPE-NH2) | 61.7 | 155 | 1.34 | 0.031 | 4.24 | 0.562
2 | CC[C@H](C)[C@H](NC(=O)[C@H](Cc1ccccc1)NC(=O)[C@H](C)NC(=O)C(C)(C)NC(=O)[C@H](CCC(N)=O)NC(=O)[C@H](C)NC(=O)[C@H](CCCCNC(=O)COCCOCCNC(=O)CC[C@H](NC(=O)CCCCCCCCCCCCCCCCC(=O)O)C(=O)O)NC(=O)[C@H](CCCN)NC(=O)[C@H](CC(=O)O)NC(=O)[C@H](CC(C)C)NC(=O)[C@](C)(CC(C)C)NC(=O)[C@@H](NC(=O)[C@](C)(CO)NC(=O)[C@H](Cc1ccncc1)NC(=O)[C@H](CC(=O)O)NC(=O)[C@H](CO)NC(=O)[C@@H](NC(=O)[C@](C)(Cc1ccccc1F)NC(=O)[C@@H](NC(=O)CNC(=O)[C@H](CCC(N)=O)NC(=O)C(C)(C)NC(=O)[C@@H](N)Cc1c[nH]cn1)[C@@H](C)O)[C@@H](C)O)[C@@H](C)CC)C(=O)N[C@H](CCC(=O)O)C(=O)N[C@@H](Cc1ccc(O)cc1)C(=O)N[C@@H](CC(C)C)C(=O)N[C@@H](CC(C)C)C(=O)N[C@@H](CCC(=O)O)C(=O)NCC(=O)NCC(=O)N1CCC[C@H]1C(=O)N[C@@H](CO)C(=O)N[C@@H](CO)C(=O)NCC(=O)N[C@@H](CCC(=O)O)C(=O)N1CCC[C@H]1C(=O)N[C@@H](CCC(=O)O)C(=O)N1CCC[C@H]1C(=O)N[C@@H](CCC(=O)O)C(N)=O [Example 479] (H-H[Aib]QGT[αMePhe(2-F)]TSD[4Pal][αMeS]I[αMeL]LD[Orn]K([AEEA-γGlu-C18 diacid])AQ[Aib]AFI[dE]YLLEGGPSSGEPEPE-NH2) | 23.5 | 432 | 5.98 | 0.0905 | 7.11 | 0.314
3 | CC[C@H](C)[C@H](NC(=O)[C@H](Cc1ccccc1)NC(=O)[C@H](C)NC(=O)C(C)(C)NC(=O)[C@H](CCC(N)=O)NC(=O)[C@H](C)NC(=O)[C@H](CCCCNC(=O)COCCOCCNC(=O)CC[C@H](NC(=O)CCCCCCCCCCCCCCCCC(=O)O)C(=O)O)NC(=O)[C@H](CCCN)NC(=O)[C@H](CC(=O)O)NC(=O)[C@H](CC(C)C)NC(=O)[C@](C)(CC(C)C)NC(=O)[C@@H](NC(=O)[C@H](CO)NC(=O)[C@H](Cc1ccncc1)NC(=O)[C@H](CC(=O)O)NC(=O)[C@H](CO)NC(=O)[C@@H](NC(=O)[C@](C)(Cc1ccccc1F)NC(=O)[C@@H](NC(=O)CNC(=O)[C@H](CCC(N)=O)NC(=O)C(C)(C)NC(=O)[C@@H](N)Cc1ccc(O)cc1)[C@@H](C)O)[C@@H](C)O)[C@@H](C)CC)C(=O)N[C@@H](CCC(=O)O)C(=O)N[C@@H](Cc1ccc(O)cc1)C(=O)N[C@@H](CC(C)C)C(=O)N[C@@H](CCC(=O)O)C(=O)N[C@@H](CCC(=O)O)C(=O)NCC(=O)NCC(=O)N1CCC[C@H]1C(=O)N[C@@H](CO)C(=O)N[C@@H](CO)C(=O)NCC(=O)N[C@@H](CCC(=O)O)C(=O)N1CCC[C@H]1C(=O)N1CCC[C@H]1C(=O)N1CCC[C@H]1C(=O)N[C@@H](CO)C(N)=O [Example 486] (H-Y[Aib]QGT[αMePhe(2-F)]TSD[4Pal]SI[αMeL]LD[Orn]K([AEEA-γGlu-C18 diacid])AQ[Aib]AFIEYLEEGGPSSGEPPPS-NH2) | 35 | 647 | 4.43 | 0.0262 | 2.57 | 0.375
4 | CC[C@H](C)[C@H](NC(=O)[C@H](Cc1ccccc1)NC(=O)[C@H](C)NC(=O)C(C)(C)NC(=O)[C@H](CCC(N)=O)NC(=O)[C@H](C)NC(=O)[C@H](CCCCNC(=O)COCCOCCNC(=O)CC[C@H](NC(=O)CCCCCCCCCCCCCCCCC(=O)O)C(=O)O)NC(=O)[C@H](CCCCN)NC(=O)[C@H](CC(=O)O)NC(=O)[C@H](CC(C)C)NC(=O)[C@](C)(CC(C)C)NC(=O)[C@@H](NC(=O)[C@H](CO)NC(=O)[C@H](Cc1ccncc1)NC(=O)[C@H](CC(=O)O)NC(=O)[C@H](CO)NC(=O)[C@@H](NC(=O)[C@](C)(Cc1ccccc1F)NC(=O)[C@@H](NC(=O)CNC(=O)[C@H](CCC(N)=O)NC(=O)C(C)(C)NC(=O)[C@@H](N)Cc1ccc(O)cc1)[C@@H](C)O)[C@@H](C)O)[C@@H](C)CC)C(=O)N[C@@H](CCC(=O)O)C(=O)N[C@@H](Cc1ccc(O)cc1)C(=O)N[C@@H](CC(C)C)C(=O)N[C@@H](CCC(=O)O)C(=O)N[C@@H](CCC(=O)O)C(=O)NCC(=O)NCC(=O)N1CCC[C@H]1C(=O)N[C@@H](CO)C(=O)N[C@@H](CO)C(=O)NCC(=O)N[C@@H](CCC(=O)O)C(=O)N1CCC[C@H]1C(=O)N1CCC[C@H]1C(=O)N1CCC[C@H]1C(=O)N[C@@H](CCC(=O)O)C(N)=O [Example 487] (H-Y[Aib]QGT[αMePhe(2-F)]TSD[4Pal]SI[αMeL]LDKK([AEEA-γGlu-C18 diacid])AQ[Aib]AFIEYLEEGGPSSGEPPPE-NH2) | 27.7 | 477 | 5.36 | 0.0286 | 2.26 | 0.639
5 | CC[C@H](C)[C@H](NC(=O)[C@H](Cc1ccccc1)NC(=O)[C@H](C)NC(=O)C(C)(C)NC(=O)[C@H](CCC(N)=O)NC(=O)[C@H](C)NC(=O)[C@H](CCCCNC(=O)COCCOCCNC(=O)CC[C@H](NC(=O)CCCCCCCCCCCCCCCCC(=O)O)C(=O)O)NC(=O)[C@H](CCCCN)NC(=O)[C@H](CC(=O)O)NC(=O)[C@H](CC(C)C)NC(=O)[C@](C)(CC(C)C)NC(=O)[C@@H](NC(=O)[C@H](CO)NC(=O)[C@H](Cc1ccc([N+](=O)[O-])cc1)NC(=O)[C@H](CC(=O)O)NC(=O)[C@H](CO)NC(=O)[C@@H](NC(=O)[C@](C)(Cc1ccccc1F)NC(=O)[C@@H](NC(=O)CNC(=O)[C@H](CCC(N)=O)NC(=O)C(C)(C)NC(=O)[C@@H](N)Cc1ccc(O)cc1)[C@@H](C)O)[C@@H](C)O)[C@@H](C)CC)C(=O)N[C@@H](CCC(=O)O)C(=O)N[C@@H](Cc1ccc(O)cc1)C(=O)N[C@@H](CC(C)C)C(=O)N[C@@H](CCC(=O)O)C(=O)N[C@@H](CCC(=O)O)C(=O)NCC(=O)NCC(=O)N1CCC[C@H]1C(=O)N[C@@H](CO)C(=O)N[C@@H](CO)C(=O)NCC(=O)N[C@@H](C)C(=O)N1CCC[C@H]1C(=O)N1CCC[C@H]1C(=O)N1CCC[C@H]1C(=O)N[C@@H](CCC(=O)O)C(N)=O [Example 495] (H-Y[Aib]QGT[αMePhe(2-F)]TSD[Phe(4-NO2)]SI[αMeL]LDKK([AEEA-γGlu-C18 diacid])AQ[Aib]AFIEYLEEGGPSSGAPPPE-NH2) | 53.8 | 205 | 1.75 | 0.0361 | 5.74 | 0.274
